For this assay, the target named is T1, RebH variant 4V + S (Lentzea aerocolonigenes, UniProt Q8KHZ8, F111S/N470S, form not given).
T1 construct: evolved RebH variant 4V + S; pET28b in E. coli BL21(DE3) + pGro7, Ni-NTA purified (His-tagged)
Put plainly: initial rates of bromolactonization, product 1a by UPLC. The format is biochemical. To be noted: NaBr (5 eq), NAD and FAD 100 uM, MBP-RebF 2.5 uM, glucose dehydrogenase, glucose 20 mM; 4V + S 20 uM; room temperature.

T1 sequence (Q8KHZ8 whole entry F111S/N470S, form open): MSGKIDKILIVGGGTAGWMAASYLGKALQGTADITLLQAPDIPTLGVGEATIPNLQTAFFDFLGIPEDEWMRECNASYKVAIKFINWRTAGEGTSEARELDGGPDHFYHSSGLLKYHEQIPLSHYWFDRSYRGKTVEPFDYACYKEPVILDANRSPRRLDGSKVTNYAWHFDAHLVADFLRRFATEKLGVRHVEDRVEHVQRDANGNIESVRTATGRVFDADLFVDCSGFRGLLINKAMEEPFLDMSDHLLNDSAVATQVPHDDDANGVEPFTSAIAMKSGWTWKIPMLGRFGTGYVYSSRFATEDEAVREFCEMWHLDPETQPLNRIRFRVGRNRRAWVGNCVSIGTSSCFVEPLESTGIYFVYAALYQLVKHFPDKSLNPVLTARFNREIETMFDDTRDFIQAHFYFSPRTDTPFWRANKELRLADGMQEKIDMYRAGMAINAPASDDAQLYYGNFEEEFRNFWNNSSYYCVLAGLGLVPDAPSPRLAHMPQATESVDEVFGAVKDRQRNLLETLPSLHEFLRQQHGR

In general, Km refers to the substrate concentration at which the rate is half of its maximum. `C=C(CCC(=O)O)c1ccc(OC)cc1` [compound 1, 4-methoxyphenyl-4-pentenoic acid]: the Km is 470 µM.

The values above are taken from paper PMC8169660, “Flavin-dependent halogenases catalyze enantioselective olefin halocyclization” (Nature Communications, 2021).
